Test results taken from ChEMBL document CHEMBL4118243, “Synthesis, molecular modelling studies and biological evaluation of new oxoeicosanoid receptor 1 agonists” (Bioorg Med Chem, 2018).

Experiments:
[1] = target: T1, Oxoeicosanoid receptor 1 (Homo sapiens, UniProt Q8TDS5); test: Agonist activity at human PK-tagged OXER1 expressed in CHOK1 cells assessed as EA-tagged beta-arrestin recruitment by beta-galactosidase enzyme fragment complementation assay; type: functional, cell-based
[2] = target: T1, Oxoeicosanoid receptor 1; test: Agonist activity at human PK-tagged OXER1 expressed in CHOK1 cells assessed as EA-tagged beta-arrestin recruitment by beta-galactosidase enzyme fragment complementation assay relative to control; type: functional, cell-based

T1 sequence (Q8TDS5 whole entry, the tested form may be a part): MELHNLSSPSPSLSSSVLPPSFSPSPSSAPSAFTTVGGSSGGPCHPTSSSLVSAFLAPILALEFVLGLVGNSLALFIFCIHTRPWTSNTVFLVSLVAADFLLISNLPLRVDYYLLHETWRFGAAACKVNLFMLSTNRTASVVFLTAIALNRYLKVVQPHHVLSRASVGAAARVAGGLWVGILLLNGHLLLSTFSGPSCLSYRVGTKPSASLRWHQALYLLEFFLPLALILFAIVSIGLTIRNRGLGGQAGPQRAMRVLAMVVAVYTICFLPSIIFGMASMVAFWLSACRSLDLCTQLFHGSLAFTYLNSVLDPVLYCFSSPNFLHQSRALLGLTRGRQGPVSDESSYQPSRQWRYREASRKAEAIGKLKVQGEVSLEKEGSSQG

| Structure (SMILES) | EC50 [1] [nM] | Emax [2] [%] |
| --- | --- | --- |
| CCCCC/C=C\C/C=C\C/C=C\C=C\C(=O)CCCC(=O)OC | 1540 | 133 |
| CC/C=C\C/C=C\C/C=C\C/C=C\C/C=C\C=C\C(=O)CCC(=O)O | > 100000 | 23 |
| CC/C=C\C/C=C\C/C=C\C/C=C\C=C\C(=O)CCCC(=O)O | 380 | 80 |
| CC/C=C\C/C=C\C/C=C\C/C=C\C=C\C(=O)CCCC(=O)OC | 2080 | 119 |
| CCCCC/C=C\C/C=C\C/C=C\C=C\C(=O)CCCC(=O)O [5-OXO-ETE] | 220 | 100 |
| CC/C=C\C/C=C\C/C=C\C/C=C\C/C=C\C=C\C(=O)CCC(=O)OC | > 100000 | 64 |
